Here are results for two compounds from patent publication US20230015823A1, “METHODS OF ADMINISTERING VOXELOTOR” (Global Blood Therapeutics, Inc., priority 2019, published 2023).

The target of the series is CYP3A4 (Homo sapiens, UniProt P08684). Kind of series: Effect of voxelotor on PK of CYP3A4 probe substrate midazolam in healthy subjects. To be noted: healthy subjects. As for the experimental part:
During Period 1, subjects received a single dose of caffeine 100 mg, warfarin sodium 10 mg+vitamin K 10 mg, omeprazole 20 mg, and midazolam hydrochloride 2 mg on Day 1. During Period 2, subjects received voxelotor 900 mg QD on Days 1 and 2 followed by 600 mg QD on Day 3, a single dose of caffeine 100 mg, warfarin sodium 10 mg+vitamin K 10 mg, omeprazole 20 mg, and midazolam hydrochloride 2 mg on Day 4, and voxelotor 600 mg QD on Days 4 through 7.
Whole blood and plasma concentrations of voxelotor and plasma concentrations of caffeine, paraxanthine, S-warfarin, omeprazole, 5-hydroxyomeprazole, midazolam, and 1-hydroxymidazolam were determined using validated assays.

The structures appear in SMILES notation.

Chain of CYP3A4 (P08684 whole entry): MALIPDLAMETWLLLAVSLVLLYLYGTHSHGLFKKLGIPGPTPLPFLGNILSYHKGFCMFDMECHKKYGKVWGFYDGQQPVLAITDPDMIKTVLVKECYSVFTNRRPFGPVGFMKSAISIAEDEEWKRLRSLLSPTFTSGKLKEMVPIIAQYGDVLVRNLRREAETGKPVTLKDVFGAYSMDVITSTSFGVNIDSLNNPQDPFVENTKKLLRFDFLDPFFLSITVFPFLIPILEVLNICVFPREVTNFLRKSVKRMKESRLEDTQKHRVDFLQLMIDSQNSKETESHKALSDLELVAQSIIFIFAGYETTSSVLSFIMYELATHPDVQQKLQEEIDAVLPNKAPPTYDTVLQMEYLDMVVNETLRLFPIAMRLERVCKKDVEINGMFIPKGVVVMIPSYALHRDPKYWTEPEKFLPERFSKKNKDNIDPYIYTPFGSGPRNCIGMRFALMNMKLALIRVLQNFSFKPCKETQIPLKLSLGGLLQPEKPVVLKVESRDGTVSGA

Turning to `OCc1ncc2n1-c1ccc(Cl)cc1C(c1ccccc1F)=NC2` [1′-hydroxy-midazolam], the “increase of overall exposure of metabolite in the presence of voxelotor” value (midazolam metabolite, voxelotor 900/600 mg QD) was determined as 75%.

On to `Cc1ncc2n1-c1ccc(Cl)cc1C(c1ccccc1F)=NC2` [midazolam], for which the “observed exposure increase with voxelotor” value (CYP3A4 substrate midazolam) came out at 1.6 fold. Further, for the setting “midazolam hydrochloride 2 mg single dose, voxelotor 900/600 mg QD”, the “increase of overall exposure in the presence of voxelotor” value came out at 63%.
